From US20220370456A1, “COMBINATION THERAPIES COMPRISING SHP2 INHIBITORS AND EGFR TYROSINE KINASE INHIBITORS” (HUYABIO International, LLC, priority 2021, published 2022)
Like-named read-outs stand apart in the source and are kept apart here.

Experiments:
[1] = system: NCI-H1975 (L858R/T790M/C797S) cells; test: Cell viability assay (CellTiter-Glo), cell proliferation; format: cell-based; settings: for IC50: NCI-H1975 (L858R/T790M/C797S), read on Day 5, CellTiter-Glo, read-out: Absolute IC50
Description: (§1) Cell lines and maintenance: Both cell lines (HCC827-ER1 and NCI-H1975) used for in vitro and in vivo studies were supplied by Crown Biosciences cell bank. […] NCI-H1975 cells were maintained in RPMI medium supplemented with 10% heat inactivated fetal bovine serum+100 ug/mL Hygromyocin at 37° C. in an atmosphere of 5% CO2 in air. The tumor cells were routinely subcultured twice weekly. The cells growing in an exponential growth phase were used for the in vitro cell potency and in vivo efficacy studies.
(§2) Cell Viability Assay: For cell cytotoxicity assays, cells were plated in 96-well plates and plating densities were determined on the basis of Crown Biosciences Cell line Database. Cells were plated at 2000 cells/well. Twenty four hours after plating, cells were treated with inhibitors at the indicated compound concentrations. On Day 5, cells were lysed with CellTiter-Glo® Luminescent Cell Viability Assay reagent (Promega) and luminescence was read using the EnVision Multi-plate reader. To calculate IC50s, a dose-response curve is generated using a nonlinear regression model with a sigmoidal dose response. IC50s were automatically generated by GraphPad Prism 8.0. The formula of surviving rate is shown below:
(§3) The surviving rate (%)=((LumTest article−LumMedium control)/(LumNone treated−LumMedium control))×100

[2] = system: HCC827-ER1 cells; test: as above; format: cell-based; settings: for IC50: HCC827-ER1, read on Day 5, CellTiter-Glo, read-out: Absolute IC50
Description: as §1, §2, §3

[3] = system: HCC827-ER1 tumor; test: HCC827-ER1 tumor model, in vivo tumor volume; settings: HCC827-ER1 tumors in female Balb/C Nude animals, during treatment, FIG. 2A-B
Description: Animals (6-8 weeks) were obtained from Shanghai Lingchang Biotechnology Co., Ltd (Shanghai, China) and were allowed to acclimate prior to tumor cell inoculation.
All cell lines were maintained in culture and cells in exponential growth phase were harvested and quantitated by cell counter before tumor inoculation. HCC827-ER1 tumor cells (5×10^7) in 0.1 ml of PBS mixed with Matrigel (1:1) inoculated into female Balb/C Nude animals, mean tumor approximately 325 mm^3 at the start of treatment.
The date of randomization and treatment initiation was denoted as day 0. Tumor volumes were measured twice per week in two dimensions using a caliper, and the volume will be expressed in mm^3 using the formula: V=(L×W×W)/2, where V is tumor volume, L is tumor length (the longest tumor dimension) and W is tumor width (the longest tumor dimension perpendicular to L). Dosing volume was 10 mL/kg/day. GH21005 were dissolved in HP-β-CD was dissolved with 200 ml of 50 mM sodium citrate (pH=4.2). Anti-PD-1 and Rat IgG2a were diluted in PBS.
Upon termination, tumors were collected 2 hours post last dose.

Structure (SMILES) | IC50 [1] | IC50 [2] | IC50 ([1]; Homo sapiens, 120 h) | IC50 ([2]; 120 h) | potency in cell proliferation assay compared to TNO-155 and RMC-4550 ([1]; NCI-H1975 cell model, FIG. 1B) | potency in cell proliferation assay compared to TNO-155 and RMC-4550 ([2]; HCC827-ER1 cell model, FIG. 1A) | effect on tumor volume [3]
N.N.[Cl][Pt][Cl] [Cisplatin] | 10.3 µM | 7.17 µM |  |  |  |  | 
C[C@H]1OCC2(CCN(c3cnc(Sc4ccnc(N)c4Cl)c(N)n3)CC2)[C@H]1N [GH21001(TNO-155)] |  |  | > 10 µM | 1.89 µM |  |  | 
C[C@@H]1OCC2(CCN(c3cnc(Sc4cccc(NC(=O)c5c(O)nc6n(c5=O)CCCC6)c4Cl)cn3)CC2)[C@@H]1N [GH21005(HBI-2376), N-(3-((5-((3S,4S)-4-amino-3-methyl-2-oxa-8-azaspiro[4.5]decan-8-yl)pyrazin-2-yl)thio)-2-chlorophenyl)-2-hydroxy-4-oxo-6,7,8,9-tetrahydro-4H-pyrido[1,2-a]pyrimidine-3-carboxamide] |  |  | 0.96 µM | 0.08 µM | superior potency | superior potency | did not result in a reduction of tumor volume
C=CC(=O)Nc1cc(Nc2nccc(-c3cn(C)c4ccccc34)n2)c(OC)cc1N(C)CCN(C)C [Osimertinib] |  |  | […] | 2.8 µM |  |  | only a slight and temporary decrease in tumor volume, followed by growth in tumor volume
